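Step 1: Grow cells in 96-well plates. Step 2: Expose to compound for 48 hours at 5 concentrations. Step 3: Interpolate endpoints linearly; if unreached, use highest concentration. TGI denotes the concentration required for complete inhibition of growth.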
What was measured:
Test in all cases: NCI tumour cell line growth inhibition, 48 h
[1] = tested on: IGROV1 ovarian
[2] = tested on: EKVX NSCLC
[3] = tested on: SW-620 colon
[4] = tested on: UO-31 renal
[5] = tested on: OVCAR-4 ovarian
[6] = tested on: RPMI-8226 leukemia
[7] = tested on: OVCAR-3 ovarian
[8] = tested on: SK-MEL-5 melanoma
[9] = tested on: HL-60(TB) leukemia
[10] = tested on: M14 melanoma
[11] = tested on: T-47D breast
[12] = tested on: MALME-3M melanoma
[13] = tested on: 786-0 renal
[14] = tested on: HCT-15 colon
[15] = tested on: MDA-MB-231 breast
[16] = tested on: SK-MEL-28 melanoma
[17] = tested on: SNB-75 CNS
[18] = tested on: CCRF-CEM leukemia
[19] = tested on: NCI-H522 lung
[20] = tested on: BT-549 breast
[21] = tested on: MDA-MB-435
[22] = tested on: OVCAR-8 ovarian
[23] = tested on: COLO 205 colon
[24] = tested on: KM12 colon
[25] = tested on: SF-295 CNS
[26] = tested on: HT29 colon
[27] = tested on: RXF 393 renal
[28] = tested on: A498 renal
[29] = tested on: OVCAR-5 ovarian
[30] = tested on: SF-268 CNS
[31] = tested on: DU-145 prostate
[32] = tested on: SNB-19 CNS
[33] = tested on: UACC-62 melanoma
[34] = tested on: NCI-H23 lung
[35] = tested on: MDA-N
[36] = tested on: MCF7 breast
[37] = tested on: HS 578T breast
[38] = tested on: HOP-92 NSCLC
[39] = tested on: HCT-116 colon
[40] = tested on: A549 NSCLC
[41] = tested on: MOLT-4 leukemia
[42] = tested on: NCI-H226 lung
[43] = tested on: TK-10 renal
[44] = tested on: HCC-2998 colon
[45] = tested on: UACC-257 melanoma
[46] = tested on: K-562 leukemia
[47] = tested on: CAKI-1 renal
[48] = tested on: SF-539 CNS
[49] = tested on: LOX IMVI melanoma
[50] = tested on: U251 CNS
[51] = tested on: PC-3 prostate
[52] = tested on: HOP-62 NSCLC
[53] = tested on: SN12C renal
[54] = tested on: ACHN renal
[55] = tested on: NCI/ADR-RES ovarian
[56] = tested on: SK-OV-3 ovarian
[57] = tested on: SK-MEL-2 melanoma
[58] = tested on: NCI-H460 lung
[59] = tested on: SR leukemia

For `C=CCn1c(=O)c(C)cn(/C(=C/C(=O)OCC)C(=O)OCC)c1=O`, the TGI [1] was 31.4 µM, the TGI [2] was 28.7 µM and the TGI [3] was 15.5 µM. It also gave a TGI [4] of 29.1 µM, a TGI [5] of 46.4 µM and a TGI [6] of 39.5 µM. For the same molecule, the TGI [7] was 23.3 µM, the TGI [8] was 36.3 µM and the TGI [9] was 5.48 µM. The TGI [10] was 28.1 µM, the TGI [11] was 30.7 µM and the TGI [12] was 29.2 µM. The TGI [13] was 19.2 µM, the TGI [14] was 13.7 µM and the TGI [15] was 29.3 µM. It also gave a TGI [16] of 32.3 µM, a TGI [17] of 25.6 µM and a TGI [18] of 5.42 µM. It also gave a TGI [19] of 10.9 µM, a TGI [20] of 30.2 µM and a TGI [21] of 28.2 µM. For the same molecule, the TGI [22] was 45.9 µM, the TGI [23] was 15.2 µM and the TGI [24] was 36 µM. The TGI [25] was greater than 100 µM, the TGI [26] was 25.8 µM and the TGI [27] was 28.2 µM. For the same molecule, the TGI [28] was 45.1 µM, the TGI [29] was 30.2 µM and the TGI [30] was 44.3 µM. It also gave a TGI [31] greater than 74.3 µM, a TGI [32] greater than 86.1 µM and a TGI [33] of 34.4 µM. The TGI [34] was 31.8 µM, the TGI [35] was 33.7 µM and the TGI [36] was 18.9 µM. The TGI [37] was 76.1 µM, the TGI [38] was 17.2 µM and the TGI [39] was 21.5 µM. It also gave a TGI [40] of 87.5 µM, a TGI [41] of 21.2 µM and a TGI [42] greater than 54.7 µM. The TGI [43] was 28.8 µM, the TGI [44] was 33.5 µM and the TGI [45] was 55.5 µM. For the same molecule, the TGI [46] was 17.1 µM, the TGI [47] was 3.65 µM and the TGI [48] was 63.2 µM. For the same molecule, the TGI [49] was 21.3 µM, the TGI [50] was 28.4 µM and the TGI [51] was 28.9 µM. For the same molecule, the TGI [52] was greater than 100 µM, the TGI [53] was 29.7 µM and the TGI [54] was 21.2 µM. For the same molecule, the TGI [55] was 55.5 µM, the TGI [56] was greater than 100 µM and the TGI [57] was 53.6 µM. It also gave a TGI [58] greater than 68.9 µM and a TGI [59] of 13.3 µM.
Work on `Cc1cccc2c1C(=O)C(C1OC(=O)c3ccccc31)C2` (configuration not stated) yielded a TGI [1] greater than 100 µM, a TGI [2] greater than 100 µM and a TGI [3] greater than 100 µM. The TGI [4] was greater than 100 µM, the TGI [5] was greater than 100 µM and the TGI [6] was greater than 100 µM. It also gave a TGI [7] greater than 100 µM, a TGI [8] greater than 100 µM and a TGI [9] greater than 100 µM. For the same molecule, the TGI [11] was greater than 100 µM, the TGI [12] was greater than 100 µM and the TGI [13] was greater than 100 µM. The TGI [14] was greater than 100 µM, the TGI [15] was greater than 100 µM and the TGI [16] was greater than 100 µM. It also gave a TGI [17] greater than 100 µM, a TGI [18] greater than 100 µM and a TGI [19] greater than 100 µM. The TGI [20] was greater than 100 µM, the TGI [21] was greater than 100 µM and the TGI [22] was greater than 100 µM. It also gave a TGI [23] greater than 100 µM, a TGI [24] greater than 100 µM and a TGI [25] greater than 100 µM. The TGI [26] was greater than 100 µM, the TGI [27] was greater than 100 µM and the TGI [28] was greater than 100 µM. For the same molecule, the TGI [29] was greater than 100 µM, the TGI [30] was greater than 100 µM and the TGI [31] was greater than 100 µM. For the same molecule, the TGI [32] was greater than 100 µM, the TGI [33] was greater than 100 µM and the TGI [34] was greater than 100 µM. It also gave a TGI [35] greater than 100 µM, a TGI [36] greater than 100 µM and a TGI [37] greater than 100 µM. For the same molecule, the TGI [38] was greater than 100 µM, the TGI [39] was greater than 100 µM and the TGI [40] was greater than 100 µM. It also gave a TGI [41] greater than 100 µM, a TGI [42] greater than 100 µM and a TGI [43] greater than 100 µM. It also gave a TGI [44] greater than 100 µM, a TGI [45] greater than 100 µM and a TGI [46] greater than 100 µM. It also gave a TGI [47] greater than 100 µM, a TGI [48] greater than 100 µM and a TGI [49] greater than 100 µM. It also gave a TGI [50] greater than 100 µM, a TGI [51] greater than 100 µM and a TGI [52] greater than 100 µM. The TGI [53] was greater than 100 µM, the TGI [54] was greater than 100 µM and the TGI [55] was greater than 100 µM. For the same molecule, the TGI [56] was greater than 100 µM, the TGI [57] was greater than 100 µM and the TGI [58] was greater than 100 µM. It also gave a TGI [59] greater than 100 µM.

Reference: PubChem BioAssay (NCI)
